Legend:
Jak2-V617F = Jak2-V617F (Mus musculus, UniProt Q62120, V617F); assay: autophosphorylation; type: cell-based
Jak2 (Jak2-WT) = Jak2 (Jak2-WT) (Mus musculus, UniProt Q62120); assay: autophosphorylation; type: cell-based
Chain of Jak2 (Jak2-WT) (Q62120 whole entry): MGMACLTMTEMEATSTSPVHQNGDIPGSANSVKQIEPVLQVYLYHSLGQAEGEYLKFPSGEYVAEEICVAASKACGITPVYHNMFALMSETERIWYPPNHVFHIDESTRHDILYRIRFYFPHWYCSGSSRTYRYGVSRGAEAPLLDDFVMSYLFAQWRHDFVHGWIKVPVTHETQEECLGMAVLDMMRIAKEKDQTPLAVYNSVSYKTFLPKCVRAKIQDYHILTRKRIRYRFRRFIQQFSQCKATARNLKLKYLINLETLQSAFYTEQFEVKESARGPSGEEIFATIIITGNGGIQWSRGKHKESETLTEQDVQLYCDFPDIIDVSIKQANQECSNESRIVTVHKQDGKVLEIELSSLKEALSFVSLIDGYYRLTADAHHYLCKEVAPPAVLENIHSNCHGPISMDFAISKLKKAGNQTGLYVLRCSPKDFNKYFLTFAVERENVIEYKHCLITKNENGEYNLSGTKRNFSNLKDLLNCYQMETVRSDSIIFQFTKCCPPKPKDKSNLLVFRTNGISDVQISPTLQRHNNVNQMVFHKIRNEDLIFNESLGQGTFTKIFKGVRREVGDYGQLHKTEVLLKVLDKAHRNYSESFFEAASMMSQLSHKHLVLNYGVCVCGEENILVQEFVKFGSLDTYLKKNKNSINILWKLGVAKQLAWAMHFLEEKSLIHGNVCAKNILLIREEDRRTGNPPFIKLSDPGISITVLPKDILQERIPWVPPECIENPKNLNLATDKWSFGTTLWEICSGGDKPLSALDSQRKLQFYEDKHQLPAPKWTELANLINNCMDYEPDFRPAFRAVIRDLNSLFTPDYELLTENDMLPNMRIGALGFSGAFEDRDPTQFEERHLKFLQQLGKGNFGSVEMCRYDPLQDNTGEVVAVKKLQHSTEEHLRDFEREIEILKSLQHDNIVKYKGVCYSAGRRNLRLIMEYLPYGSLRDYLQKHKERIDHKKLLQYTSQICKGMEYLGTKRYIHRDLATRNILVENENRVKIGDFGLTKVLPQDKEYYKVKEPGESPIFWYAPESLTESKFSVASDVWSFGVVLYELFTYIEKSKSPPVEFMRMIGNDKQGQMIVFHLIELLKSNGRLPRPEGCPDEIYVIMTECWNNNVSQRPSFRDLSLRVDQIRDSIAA

Chain of Jak2-V617F (Q62120 whole entry V617F): as the sequence (Q62120 whole entry) above, with V617F counted along it

SMILES: CC(CCc1ccccn1)(CCc1ccccn1)C(=O)c1ccccc1 [Z3, 2-methyl-1-phenyl-4-pyridin-2-yl-2-(2-pyridin-2-ylethyl)butan-1-one]
- IC50 (Jak2-V617F): ~28 µM
- IC50 (Jak2 (Jak2-WT)): ~15 µM

— publication PMC2579271 (Molecular cancer therapeutics, 2008)
